AC50 data for eleven compounds are collected here from ChEMBL document CHEMBL5291721, “A preclinical secondary pharmacology resource illuminates target-adverse drug reaction associations of marketed drugs” (Nat Commun, 2023).

Assay [1] addresses Sodium-dependent serotonin transporter (Homo sapiens, UniProt P31645).
Assay [2] deals with Prostaglandin G/H synthase 1 (Homo sapiens, UniProt P23219). Type of assay: functional.
In a further assay the target is Prothrombin (Homo sapiens, UniProt P00734). It is filed as functional.
Assay [3] concerns the target 3',5'-cyclic-AMP phosphodiesterase 4A (Homo sapiens, UniProt P27815). Type of assay: functional.
Assay [4] addresses cGMP-inhibited 3',5'-cyclic phosphodiesterase 3A (Homo sapiens, UniProt Q14432). Type of assay: functional.
The target of assay [5] is T1, Alpha-2A adrenergic receptor (Homo sapiens, UniProt P08913).
T1 sequence (P08913 whole entry): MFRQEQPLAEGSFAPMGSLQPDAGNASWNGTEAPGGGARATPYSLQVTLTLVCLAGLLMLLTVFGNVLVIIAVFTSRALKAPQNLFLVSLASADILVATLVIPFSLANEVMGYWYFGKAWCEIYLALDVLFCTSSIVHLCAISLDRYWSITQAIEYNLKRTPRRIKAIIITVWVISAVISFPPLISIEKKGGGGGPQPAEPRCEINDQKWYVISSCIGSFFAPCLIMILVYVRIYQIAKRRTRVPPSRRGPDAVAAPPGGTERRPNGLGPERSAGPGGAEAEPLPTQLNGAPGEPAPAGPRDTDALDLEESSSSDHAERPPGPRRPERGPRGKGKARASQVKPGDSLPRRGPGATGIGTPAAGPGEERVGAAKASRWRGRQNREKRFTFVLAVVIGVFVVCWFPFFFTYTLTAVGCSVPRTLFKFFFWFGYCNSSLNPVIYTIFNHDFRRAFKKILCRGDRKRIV

Assay [6] addresses T2, Muscarinic acetylcholine receptor M2 (Homo sapiens, UniProt P08172).
T2 sequence (P08172 whole entry): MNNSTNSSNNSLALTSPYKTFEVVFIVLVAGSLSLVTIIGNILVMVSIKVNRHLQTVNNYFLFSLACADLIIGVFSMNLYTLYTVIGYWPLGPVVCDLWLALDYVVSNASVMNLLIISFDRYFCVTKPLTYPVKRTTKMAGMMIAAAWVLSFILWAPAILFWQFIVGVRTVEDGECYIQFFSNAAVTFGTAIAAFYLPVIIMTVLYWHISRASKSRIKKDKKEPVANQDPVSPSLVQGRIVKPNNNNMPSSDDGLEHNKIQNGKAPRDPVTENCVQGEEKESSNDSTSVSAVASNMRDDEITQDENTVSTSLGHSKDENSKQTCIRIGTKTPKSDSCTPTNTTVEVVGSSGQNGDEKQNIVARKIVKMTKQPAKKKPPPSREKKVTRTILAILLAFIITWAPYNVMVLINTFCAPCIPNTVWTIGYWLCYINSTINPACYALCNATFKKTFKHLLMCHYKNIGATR

For the next assay, the target named is T3, Progesterone receptor (Homo sapiens, UniProt P06401).
T3 sequence (P06401 whole entry): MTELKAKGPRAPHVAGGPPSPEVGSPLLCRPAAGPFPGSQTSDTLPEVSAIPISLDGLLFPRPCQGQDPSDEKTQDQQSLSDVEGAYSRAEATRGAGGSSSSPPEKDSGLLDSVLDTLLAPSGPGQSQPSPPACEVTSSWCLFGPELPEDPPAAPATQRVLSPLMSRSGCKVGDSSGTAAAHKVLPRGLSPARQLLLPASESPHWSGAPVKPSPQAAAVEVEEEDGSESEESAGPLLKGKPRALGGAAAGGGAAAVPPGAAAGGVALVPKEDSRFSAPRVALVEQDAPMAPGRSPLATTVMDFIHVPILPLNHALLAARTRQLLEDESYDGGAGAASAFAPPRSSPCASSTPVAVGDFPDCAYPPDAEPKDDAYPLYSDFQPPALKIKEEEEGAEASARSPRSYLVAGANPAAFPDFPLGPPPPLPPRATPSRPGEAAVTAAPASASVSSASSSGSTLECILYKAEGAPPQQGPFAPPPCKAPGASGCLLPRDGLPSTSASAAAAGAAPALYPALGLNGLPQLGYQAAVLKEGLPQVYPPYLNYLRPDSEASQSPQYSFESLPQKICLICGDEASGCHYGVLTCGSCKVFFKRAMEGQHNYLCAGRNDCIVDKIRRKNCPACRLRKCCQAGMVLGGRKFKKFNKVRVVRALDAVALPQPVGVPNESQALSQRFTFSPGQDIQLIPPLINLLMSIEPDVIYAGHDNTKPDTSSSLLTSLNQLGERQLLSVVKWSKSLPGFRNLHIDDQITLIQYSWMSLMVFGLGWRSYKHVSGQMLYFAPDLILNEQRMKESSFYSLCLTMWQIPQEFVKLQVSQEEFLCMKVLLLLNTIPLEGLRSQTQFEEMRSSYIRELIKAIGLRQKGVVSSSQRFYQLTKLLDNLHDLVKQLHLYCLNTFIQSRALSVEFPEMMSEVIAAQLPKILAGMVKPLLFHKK

Another assay concerns the target D(3) dopamine receptor (Homo sapiens, UniProt P35462).
In assay [7] the target is Voltage-gated inwardly rectifying potassium channel KCNH2 (Homo sapiens, UniProt Q12809). Type of assay: functional. Particulars: read-out: AC50.
The target in assay [8] is 5-hydroxytryptamine receptor 2B (Homo sapiens, UniProt P41595). Type of assay: functional, cell-based.
The target of the next assay is T4, Adenosine receptor A3 (Homo sapiens, UniProt P0DMS8).
T4 sequence (P0DMS8 whole entry): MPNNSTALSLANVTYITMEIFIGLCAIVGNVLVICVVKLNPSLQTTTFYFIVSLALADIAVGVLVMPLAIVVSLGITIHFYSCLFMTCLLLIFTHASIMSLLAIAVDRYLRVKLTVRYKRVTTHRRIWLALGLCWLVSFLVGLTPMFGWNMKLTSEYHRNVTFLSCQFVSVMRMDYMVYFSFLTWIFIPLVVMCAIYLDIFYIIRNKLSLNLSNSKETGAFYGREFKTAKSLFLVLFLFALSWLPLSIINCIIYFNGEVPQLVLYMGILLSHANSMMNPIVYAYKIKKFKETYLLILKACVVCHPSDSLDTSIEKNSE
Further: assay procedure not described here.

Sequence of Sodium-dependent serotonin transporter (P31645 whole entry): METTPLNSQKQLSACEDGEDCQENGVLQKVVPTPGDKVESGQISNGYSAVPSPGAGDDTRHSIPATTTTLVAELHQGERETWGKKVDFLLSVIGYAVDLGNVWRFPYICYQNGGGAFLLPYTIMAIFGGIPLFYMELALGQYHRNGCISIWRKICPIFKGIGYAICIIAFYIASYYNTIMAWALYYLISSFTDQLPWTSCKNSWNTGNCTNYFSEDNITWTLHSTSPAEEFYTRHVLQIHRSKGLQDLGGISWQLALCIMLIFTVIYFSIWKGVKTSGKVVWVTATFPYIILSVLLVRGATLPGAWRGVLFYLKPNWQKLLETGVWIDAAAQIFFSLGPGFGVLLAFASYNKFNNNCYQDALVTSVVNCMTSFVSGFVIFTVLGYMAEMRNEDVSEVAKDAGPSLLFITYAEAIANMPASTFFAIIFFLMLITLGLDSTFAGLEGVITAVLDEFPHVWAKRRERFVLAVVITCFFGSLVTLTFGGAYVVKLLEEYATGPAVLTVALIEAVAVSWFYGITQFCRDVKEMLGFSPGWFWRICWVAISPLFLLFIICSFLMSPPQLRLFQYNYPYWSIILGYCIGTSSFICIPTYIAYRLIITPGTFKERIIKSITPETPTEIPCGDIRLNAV
Sequence of 3',5'-cyclic-AMP phosphodiesterase 4A (P27815 whole entry): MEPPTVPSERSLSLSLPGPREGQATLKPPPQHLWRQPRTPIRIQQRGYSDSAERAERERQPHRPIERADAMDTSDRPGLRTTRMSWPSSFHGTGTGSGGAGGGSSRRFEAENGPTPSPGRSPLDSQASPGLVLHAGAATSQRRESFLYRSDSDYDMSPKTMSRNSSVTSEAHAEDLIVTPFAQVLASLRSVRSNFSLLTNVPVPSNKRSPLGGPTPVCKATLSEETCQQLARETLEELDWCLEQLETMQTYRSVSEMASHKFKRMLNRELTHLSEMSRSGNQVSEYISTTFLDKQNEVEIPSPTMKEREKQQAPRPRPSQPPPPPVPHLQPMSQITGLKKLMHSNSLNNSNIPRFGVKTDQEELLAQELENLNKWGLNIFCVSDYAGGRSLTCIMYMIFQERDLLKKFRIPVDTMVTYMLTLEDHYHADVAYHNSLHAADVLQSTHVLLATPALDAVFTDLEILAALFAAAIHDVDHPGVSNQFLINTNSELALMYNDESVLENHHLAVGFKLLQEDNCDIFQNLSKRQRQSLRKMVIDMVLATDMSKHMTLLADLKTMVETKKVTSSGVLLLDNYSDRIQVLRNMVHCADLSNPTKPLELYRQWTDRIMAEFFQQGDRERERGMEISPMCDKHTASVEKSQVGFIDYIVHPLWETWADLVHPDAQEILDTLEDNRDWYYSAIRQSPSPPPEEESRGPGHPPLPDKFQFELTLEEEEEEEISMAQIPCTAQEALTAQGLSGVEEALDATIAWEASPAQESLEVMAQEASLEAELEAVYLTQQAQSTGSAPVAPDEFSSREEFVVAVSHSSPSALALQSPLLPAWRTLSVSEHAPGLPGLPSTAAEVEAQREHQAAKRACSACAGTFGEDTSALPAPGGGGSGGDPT
Sequence of D(3) dopamine receptor (P35462 whole entry): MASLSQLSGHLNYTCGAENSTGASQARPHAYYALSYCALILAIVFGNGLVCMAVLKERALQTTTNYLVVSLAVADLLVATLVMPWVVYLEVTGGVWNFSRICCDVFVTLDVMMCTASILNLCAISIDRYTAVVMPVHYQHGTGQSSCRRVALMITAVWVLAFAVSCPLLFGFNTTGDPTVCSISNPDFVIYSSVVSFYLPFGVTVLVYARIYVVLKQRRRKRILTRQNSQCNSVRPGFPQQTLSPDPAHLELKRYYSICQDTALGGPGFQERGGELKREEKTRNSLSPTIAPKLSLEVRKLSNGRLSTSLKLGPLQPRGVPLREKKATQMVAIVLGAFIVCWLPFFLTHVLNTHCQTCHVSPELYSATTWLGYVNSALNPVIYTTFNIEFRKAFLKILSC
Sequence of cGMP-inhibited 3',5'-cyclic phosphodiesterase 3A (Q14432 whole entry): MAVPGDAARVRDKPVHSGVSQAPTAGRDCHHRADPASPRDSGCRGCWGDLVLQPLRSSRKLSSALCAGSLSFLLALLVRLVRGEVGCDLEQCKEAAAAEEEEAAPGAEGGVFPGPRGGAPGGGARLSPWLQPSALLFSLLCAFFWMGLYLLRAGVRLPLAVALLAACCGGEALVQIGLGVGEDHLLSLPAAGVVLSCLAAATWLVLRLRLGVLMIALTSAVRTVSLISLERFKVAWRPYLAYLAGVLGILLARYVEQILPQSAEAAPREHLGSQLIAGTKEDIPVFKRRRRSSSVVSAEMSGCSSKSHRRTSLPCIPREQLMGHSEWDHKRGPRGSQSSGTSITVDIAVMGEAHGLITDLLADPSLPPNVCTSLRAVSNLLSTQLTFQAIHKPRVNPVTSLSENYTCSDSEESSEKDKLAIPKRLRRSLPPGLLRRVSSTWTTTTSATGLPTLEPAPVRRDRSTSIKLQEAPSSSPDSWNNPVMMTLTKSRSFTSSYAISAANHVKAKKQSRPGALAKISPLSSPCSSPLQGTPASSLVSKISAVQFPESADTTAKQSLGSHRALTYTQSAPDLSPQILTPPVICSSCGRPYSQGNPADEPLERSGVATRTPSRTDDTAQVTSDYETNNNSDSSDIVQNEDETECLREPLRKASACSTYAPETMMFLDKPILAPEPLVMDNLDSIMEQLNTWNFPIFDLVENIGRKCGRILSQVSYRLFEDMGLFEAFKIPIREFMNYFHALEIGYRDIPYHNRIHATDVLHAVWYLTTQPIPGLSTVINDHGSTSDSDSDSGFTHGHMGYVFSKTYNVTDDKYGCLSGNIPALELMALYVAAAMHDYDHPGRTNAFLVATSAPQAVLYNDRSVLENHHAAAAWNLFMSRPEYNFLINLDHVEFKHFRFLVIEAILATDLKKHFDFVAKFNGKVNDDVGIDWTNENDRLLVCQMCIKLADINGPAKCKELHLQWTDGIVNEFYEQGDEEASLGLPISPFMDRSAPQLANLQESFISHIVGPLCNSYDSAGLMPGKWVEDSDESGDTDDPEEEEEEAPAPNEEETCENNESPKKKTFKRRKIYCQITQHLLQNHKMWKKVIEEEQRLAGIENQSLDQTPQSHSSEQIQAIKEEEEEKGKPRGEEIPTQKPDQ
Sequence of Prostaglandin G/H synthase 1 (P23219 whole entry): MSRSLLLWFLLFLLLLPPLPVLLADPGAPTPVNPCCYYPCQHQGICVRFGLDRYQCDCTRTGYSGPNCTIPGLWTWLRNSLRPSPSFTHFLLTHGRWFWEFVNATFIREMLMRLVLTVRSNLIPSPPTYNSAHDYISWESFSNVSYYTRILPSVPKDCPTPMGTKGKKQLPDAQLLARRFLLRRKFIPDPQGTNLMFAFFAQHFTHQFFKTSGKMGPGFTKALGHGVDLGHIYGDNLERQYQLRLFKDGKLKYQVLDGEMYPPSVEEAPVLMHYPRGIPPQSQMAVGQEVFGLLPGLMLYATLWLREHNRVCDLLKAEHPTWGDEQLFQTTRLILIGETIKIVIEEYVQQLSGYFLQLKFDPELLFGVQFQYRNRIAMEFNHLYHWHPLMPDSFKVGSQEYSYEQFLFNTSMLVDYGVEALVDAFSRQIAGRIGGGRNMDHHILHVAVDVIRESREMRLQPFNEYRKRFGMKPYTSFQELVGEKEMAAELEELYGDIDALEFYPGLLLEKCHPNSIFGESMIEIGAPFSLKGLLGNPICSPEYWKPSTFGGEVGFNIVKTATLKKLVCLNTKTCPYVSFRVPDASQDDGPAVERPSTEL
Sequence of 5-hydroxytryptamine receptor 2B (P41595 whole entry): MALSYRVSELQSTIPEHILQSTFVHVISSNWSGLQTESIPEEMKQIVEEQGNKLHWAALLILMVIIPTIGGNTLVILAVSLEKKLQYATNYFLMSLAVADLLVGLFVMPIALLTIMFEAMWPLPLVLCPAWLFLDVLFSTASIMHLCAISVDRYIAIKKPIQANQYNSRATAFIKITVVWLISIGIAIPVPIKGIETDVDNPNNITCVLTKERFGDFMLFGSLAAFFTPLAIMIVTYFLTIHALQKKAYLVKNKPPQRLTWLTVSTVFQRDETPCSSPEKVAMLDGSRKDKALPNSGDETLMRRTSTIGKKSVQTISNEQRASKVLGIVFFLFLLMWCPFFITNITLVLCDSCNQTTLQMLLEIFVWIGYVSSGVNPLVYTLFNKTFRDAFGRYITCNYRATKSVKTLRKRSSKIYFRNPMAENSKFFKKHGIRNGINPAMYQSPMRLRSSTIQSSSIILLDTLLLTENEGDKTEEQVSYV

As for `CC(C)(Oc1ccc(C(=O)c2ccc(Cl)cc2)cc1)C(=O)O` [FENOFIBRIC ACID], the AC50 is greater than 30 µM in [1]; greater than 30 µM in [2]; greater than 30 µM at Prothrombin; greater than 3 µM in [3]; greater than 30 µM in assay [4]; greater than 30 µM in assay [5]. Also, the AC50 (in [6]; at Progesterone receptor; at D(3) dopamine receptor; in [7]; in assay [8]; at Adenosine receptor A3) was greater than 30 µM in each case.

In the case of `Nc1ccc(C(=O)NCC(=O)O)cc1` [AMINOHIPPURIC ACID], the AC50 (in [1]; in assay [2]; on Prothrombin; in assay [3]; in assay [4]; in assay [5]) was greater than 30 µM in each case. In addition, the AC50 (in assay [6]; on Progesterone receptor; on D(3) dopamine receptor; in [7]; in [8]; on Adenosine receptor A3) was greater than 30 µM each time.

As for `CNC(=O)c1cnn(-c2nc(N)c3ncn([C@@H]4O[C@H](CO)[C@@H](O)[C@H]4O)c3n2)c1` [REGADENOSON ANHYDROUS], the AC50 (in assay [1]; in assay [2]; on Prothrombin; in assay [3]; in [4]; in assay [5]) was greater than 30 µM each time. For the same compound, the AC50 in assay [6] was greater than 30 µM; at Progesterone receptor, greater than 30 µM; on D(3) dopamine receptor it was greater than 30 µM; in assay [8], greater than 30 µM; on Adenosine receptor A3, 0.481 µM.

As to `N[C@@H](Cc1ccc(O)cc1)C(=O)O` [TYROSINE], the AC50 (in [1]; in assay [2]; on Prothrombin; in assay [3]; in assay [4]; in [5]) was greater than 30 µM in each case. Moreover, the AC50 (in [6]; at Progesterone receptor; at D(3) dopamine receptor; in assay [8]; at Adenosine receptor A3) was greater than 30 µM throughout.

As for `CC(=O)OCC(=O)[C@@]1(O)CC[C@H]2[C@@H]3C[C@H](C)C4=CC(=O)C=C[C@]4(C)[C@H]3[C@@H](O)C[C@@]21C` [METHYLPREDNISOLONE ACETATE], the AC50 in [1] is greater than 30 µM; in [2], greater than 30 µM; at Prothrombin, 11.9 µM; in [3], greater than 30 µM; in [4], greater than 30 µM; in [5] it was greater than 30 µM. Also, the AC50 in [6] is greater than 30 µM; on Progesterone receptor it was 3.03 µM; at D(3) dopamine receptor, greater than 30 µM; in [8] it was greater than 30 µM; at Adenosine receptor A3, greater than 30 µM.

Turning to `CCOC1O[C@H]([C@@H](COCc2ccccc2)OCc2ccccc2)[C@H](OCc2ccccc2)[C@H]1O` (stereo partly drawn) [TRIBENOSIDE], the AC50 (in assay [1]; in [2]; at Prothrombin; in [3]; in assay [4]; in [5]) was greater than 30 µM in each case. In addition, the AC50 in assay [6] is greater than 30 µM; at Progesterone receptor, greater than 30 µM; in [7], greater than 30 µM; in assay [8] it was greater than 30 µM; on Adenosine receptor A3, 14 µM.

Regarding `COCC(=O)O[C@]1(CCN(C)CCCc2nc3ccccc3[nH]2)CCc2cc(F)ccc2[C@@H]1C(C)C` [MIBEFRADIL], the AC50 in assay [1] was 22.8 µM; in [2], greater than 30 µM; at Prothrombin, greater than 30 µM; in assay [3], greater than 30 µM; in assay [4] it was greater than 30 µM; in [5], 23.4 µM. The AC50 in [6] is 3.85 µM; on Progesterone receptor, greater than 30 µM; at D(3) dopamine receptor, 0.825 µM; in assay [8], greater than 30 µM; at Adenosine receptor A3, 14.3 µM.

Take `CC(C)Cc1ccc(C(C)C(=O)OCc2ccccn2)cc1` (stereo not drawn) [IBUPROFEN PICONOL]: the AC50 in assay [1] is greater than 30 µM; in [2], 10.8 µM; on Prothrombin it was greater than 30 µM; in [3], greater than 30 µM; in assay [4], greater than 30 µM; in [5], greater than 30 µM. In addition, the AC50 in assay [6] is greater than 30 µM; on Progesterone receptor, 19.1 µM; in [7], greater than 30 µM; in assay [8], greater than 30 µM; on Adenosine receptor A3, 15.8 µM.

Consider `CC1(C)S[C@@H]2[C@H](NC(=O)[C@H](NC(=O)c3cnc4cccnc4c3O)c3ccccc3)C(=O)N2[C@H]1C(=O)O` [APALCILLIN], for which the AC50 in [1] is greater than 30 µM; in assay [2], 14.6 µM; on Prothrombin, greater than 30 µM; in [3] it was greater than 30 µM; in [4], greater than 30 µM; in [5], greater than 30 µM. The AC50 was greater than 30 µM in assay [6]; greater than 30 µM on Progesterone receptor; greater than 30 µM at D(3) dopamine receptor; greater than 30 µM in assay [8]; 29 µM on Adenosine receptor A3.

For `Cn1c(CCCC(=O)O)nc2cc(N(CCCl)CCCl)ccc21` [BENDAMUSTINE], the AC50 in [1] was greater than 30 µM; in assay [2], 5.8 µM; on Prothrombin, greater than 30 µM; in assay [3], greater than 30 µM; in [4], greater than 30 µM; in [5], greater than 30 µM. Besides, the AC50 (in assay [6]; at Progesterone receptor; at D(3) dopamine receptor; in assay [8]; at Adenosine receptor A3) was greater than 30 µM in each case.

With `CC1(C)CCC(C)(C)c2cc(NC(=O)c3ccc(C(=O)O)cc3)ccc21` [TAMIBAROTENE], the AC50 (in assay [1]; in [2]; at Prothrombin; in assay [3]; in assay [4]; in [5]) was greater than 30 µM in each case. The AC50 is greater than 30 µM in [6]; 29.2 µM on Progesterone receptor; greater than 30 µM at D(3) dopamine receptor; greater than 30 µM in [8]; 29.8 µM at Adenosine receptor A3.

As a reminder, the AC50 is the midpoint of the concentration-response curve, whichever way the signal moves.
